According to ChEMBL document CHEMBL5223073, “Andrographolide suppresses cisplatin-induced endothelial hyperpermeability through activation of PI3K/Akt and eNOS -derived nitric oxide” (Bioorg Med Chem, 2020):
The source made the active and inactive calls. No cut-off for these calls is given here.

Columns and labels:
[1] = system: HUVEC; assay: Induction of NO production in cisplatin-treated HUVEC cells assessed as increase in fluorescence signal at 30 uM preincubated with PI3K inhibitor, wortmannin for 3 hrs followed by compound addition and measured immediately by DAF-FM dye based analysis; type: functional, cell-based; settings: Homo sapiens
[2] = molecular target: Transcription factor p65 (Homo sapiens) (UniProt Q04206); assay: Inhibition of cisplatin-induced phosphorylation of p65 subunit at Ser536 residue in HUVEC cells at 30 uM incubated for 1 hr by Western blot analysis; type: cell-based
Chain of Transcription factor p65 (Homo sapiens) (Q04206 whole entry): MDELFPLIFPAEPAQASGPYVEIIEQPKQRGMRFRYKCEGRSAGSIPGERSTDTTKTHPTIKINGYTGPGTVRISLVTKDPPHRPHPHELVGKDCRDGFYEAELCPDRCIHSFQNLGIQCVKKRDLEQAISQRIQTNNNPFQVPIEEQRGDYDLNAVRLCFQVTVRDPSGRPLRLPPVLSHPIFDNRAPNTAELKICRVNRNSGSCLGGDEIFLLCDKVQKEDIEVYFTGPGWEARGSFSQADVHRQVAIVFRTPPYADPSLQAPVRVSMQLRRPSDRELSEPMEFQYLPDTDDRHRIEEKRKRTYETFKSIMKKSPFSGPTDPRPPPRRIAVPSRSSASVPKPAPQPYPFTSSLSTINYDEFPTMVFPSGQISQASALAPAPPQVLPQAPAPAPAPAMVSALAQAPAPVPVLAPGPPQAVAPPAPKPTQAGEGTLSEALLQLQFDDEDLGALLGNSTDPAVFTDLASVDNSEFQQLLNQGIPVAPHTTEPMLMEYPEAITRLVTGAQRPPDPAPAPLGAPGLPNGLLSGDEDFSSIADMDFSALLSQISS

[3] = molecular target: T1, NF-kappa-B inhibitor alpha (Homo sapiens) (UniProt P25963); assay: Inhibition of cisplatin-induced phosphorylation of IkappaBalpha at Ser32/36 residue in HUVEC cells at 30 uM preincubated with PI3K inhibitor, wortmannin followed by compound addition and further incubated for 1 hr by Western blot analysis; type: cell-based
T1 sequence (whole entry): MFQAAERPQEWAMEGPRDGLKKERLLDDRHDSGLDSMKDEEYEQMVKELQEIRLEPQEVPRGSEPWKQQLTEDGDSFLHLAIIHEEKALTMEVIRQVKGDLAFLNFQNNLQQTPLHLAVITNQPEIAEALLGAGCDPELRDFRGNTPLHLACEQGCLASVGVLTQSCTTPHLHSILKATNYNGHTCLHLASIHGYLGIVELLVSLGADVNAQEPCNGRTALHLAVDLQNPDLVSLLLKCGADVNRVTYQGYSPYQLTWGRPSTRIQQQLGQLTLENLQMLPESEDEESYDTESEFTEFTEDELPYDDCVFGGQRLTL

[4] = molecular target: T1, NF-kappa-B inhibitor alpha (Homo sapiens); assay: Inhibition of cisplatin-induced phosphorylation of IkappaBalpha at Ser32/36 residue in HUVEC cells at 30 uM preincubated with eNOS inhibitor, N(G)-nitro-L-arginine methyl ester followed by compound addition and further incubated for 1 hr by Western blot analysis; type: cell-based
[5] = molecular target: Transcription factor p65 (Homo sapiens) (UniProt Q04206); assay: Inhibition of cisplatin-induced phosphorylation of p65 subunit at Ser536 residue in HUVEC cells at 30 uM preincubated with eNOS inhibitor, N(G)-nitro-L-arginine methyl ester followed by compound addition and further incubated for 1 hr by Western blot analysis; type: cell-based
[6] = system: HUVEC; assay: Upregulation of cytosolic p65 level in cisplatin-treated HUVEC cells at 30 uM preincubated with eNOS inhibitor, N(G)-nitro-L-arginine methyl ester followed by compound addition and further incubated for 1 hr by Western blot analysis; type: functional, cell-based; settings: Homo sapiens
[7] = system: HUVEC; assay: Downregulation of cisplatin-induced ICAM1 protein expression in HUVEC cells at 30 uM preincubated with PI3K inhibitor, wortmannin followed by compound addition and further incubated for 1 hr by Western blot analysis; type: functional, cell-based; settings: Homo sapiens
[8] = system: HUVEC; assay: Inhibition of cisplatin-induced PKCalpha translocation in HUVEC cells assessed as reduction in membrane PKCalpha activity at 30 uM incubated for 15 mins in presence of cisplatin by Western blot analysis; type: functional, cell-based; settings: Homo sapiens
[9] = system: HUVEC; assay: Inhibition of cisplatin-induced TRPC1 phosphorylation in [32P] orthophosphate labeled HUVEC cells at 30 uM incubated for 15 mins in presence of cisplatin by Western blot analysis; type: cell-based; settings: Homo sapiens
[10] = system: HUVEC; assay: Inhibition of cisplatin-induced TRPC1 phosphorylation in [32P] orthophosphate labeled HUVEC cells at 30 uM incubated for 15 mins in presence of cisplatin and PI3K inhibitor, wortmannin by Western blot analysis; type: cell-based; settings: Homo sapiens
[11] = system: HUVEC; assay: Inhibition of cisplatin-induced store operated Ca2+ release in HUVEC cells at 30 uM preincubated with compound in presence of PI3K inhibitor, wortmannin followed by cisplatin stimulation by Fura-2 AM staining based calcium influx assay; type: functional, cell-based; settings: Homo sapiens
[12] = system: HUVEC; assay: Improvement in cisplatin-induced endothelial monolayer integrity in HUVEC cells assessed as increase in transendothelial electric resistance at 30 uM preincubated with compound in presence of PI3K inhibitor, wortmannin followed by cisplatin stimulation and measured after 45 mins; type: functional, cell-based; settings: Homo sapiens
[13] = system: HUVEC; assay: Improvement in cisplatin-induced endothelial monolayer integrity in HUVEC cells assessed as reduction in transmembrane movement of albumin at 30 uM preincubated with compound followed by cisplatin stimulation and measured after 2 hrs; type: functional, cell-based; settings: Homo sapiens
[14] = system: U-937; assay: (§1) Inhibition of cisplatin-induced ICAM1 dependent HUVEC cells adhesion to human U-937 cells at 10 to 30 uM preincubated with HUVEC cells for 4.5 hrs in presence of cisplatin and PI3K inhibitor, wortmannin followed by U-937 cell suspension addition and measured after 1 hr by BCECF fluorescent probe based assay; type: functional; settings: dose 10-30 µM, time 5.5 hrs
[15] = system: U-937; assay: as §1, with “eNOS” for “PI3K”, “N(G)-nitro-L-arginine methyl ester” for “wortmannin”; type: functional; settings: dose 10-30 µM, time 5.5 hrs

inhibition [2]: Active
inhibition [3]: inactive
inhibition [4]: inactive
inhibition [5]: inactive
Structure (SMILES): C=C1CC[C@@H]2[C@](C)(CO)[C@H](O)CC[C@@]2(C)[C@@H]1C/C=C1/C(=O)OC[C@H]1O [ANDROGRAPHOLIDE]
Activity [1]: inactive
Activity [6]: inactive
Activity [7]: inactive
inhibition [8]: Active
inhibition [9]: Active
inhibition [10]: inactive
inhibition [11]: inactive
Activity [12]: inactive
Activity [13]: Active
inhibition [14]: inactive
inhibition [15]: inactive
